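Compound exposure: 48 hours, 5 concentrations, 96-well plates. GI50 = concentration required for 50% inhibition of growth. TGI marks complete inhibition of growth.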
Key:
Assay in all cases: NCI-60 cell line screen, 48 h
OVCAR-3 ovarian = test system: OVCAR-3 ovarian
HOP-62 NSCLC = test system: HOP-62 NSCLC
HCT-15 colon = test system: HCT-15 colon
IGROV1 ovarian = test system: IGROV1 ovarian
NCI-H460 lung = test system: NCI-H460 lung
RXF 393 renal = test system: RXF 393 renal
OVCAR-8 ovarian = test system: OVCAR-8 ovarian
SF-268 CNS = test system: SF-268 CNS
A498 renal = test system: A498 renal
CAKI-1 renal = test system: CAKI-1 renal

Row | Compound | TGI (OVCAR-3 ovarian) [µM] | TGI (HOP-62 NSCLC) [µM] | TGI (HCT-15 colon) [µM] | TGI (IGROV1 ovarian) [µM] | TGI (NCI-H460 lung) [µM] | TGI (RXF 393 renal) [µM] | TGI (OVCAR-8 ovarian) [µM] | TGI (SF-268 CNS) [µM] | TGI (A498 renal) [µM] | TGI (CAKI-1 renal) [µM] | GI50 (OVCAR-3 ovarian) [µM] | GI50 (HOP-62 NSCLC) [nM] | GI50 (HCT-15 colon) [nM] | GI50 (IGROV1 ovarian) [nM] | GI50 (NCI-H460 lung) [nM] | GI50 (RXF 393 renal) [nM] | GI50 (OVCAR-8 ovarian) [µM] | GI50 (SF-268 CNS) [µM] | GI50 (A498 renal) [nM] | GI50 (CAKI-1 renal) [nM]
1 | O=C(Nc1c(Cl)cc([N+](=O)[O-])cc1Cl)C(=O)C(C1OC(=O)c2ccccc21)[N+](=O)[O-] (stereo not drawn) | > 100 | > 100 | > 100 | > 100 | > 100 | > 100 | > 100 | > 100 | > 100 | > 100 | – | – | – | – | – | – | – | – | – | –
2 | COc1ccc(OC)c2c(C(=O)O)c(Cc3ccccc3)ccc12 | > 100 | > 100 | > 100 | > 100 | > 100 | > 100 | > 100 | > 100 | > 100 | > 100 | – | – | – | – | – | – | – | – | – | –
3 | COc1ccc(CC2NCCc3cc(OC)c(OC)cc32)cc1Br (stereo not drawn) | > 100 | > 100 | > 100 | > 100 | > 71.4 | 59.1 | > 100 | > 100 | > 79.1 | > 100 | – | – | – | – | – | – | – | – | – | –
4 | ClCc1cccc(Cn2cnc3nc(Cl)nc(Cl)c32)c1 | 2.86 | 3.44 | 2.13 | 8.92 | 3.09 | 2.92 | 21.2 | 3.83 | 2.9 | 3.4 | 1.53 | 1990 | 955 | 4450 | 1720 | 1330 | 9.24 | 1.38 | 1520 | 1890
5 | CC(C)(C[C@H]1CN(S(=O)(=O)c2cccc(C(F)(F)F)c2)c2cc(-c3cc(F)cc(OC(F)F)c3)ccc2O1)C(=O)O | 14.1 | 23.8 | 16.9 | 27.6 | 16.3 | 24.2 | 35.5 | 24.7 | 16.9 | 24.4 | 3.76 | 6650 | 4190 | 9430 | 4100 | 8430 | 12.1 | 10.3 | 4500 | 10500
6 | COc1cc(C(=O)c2cc(C)c3[nH]c4ccc(C)cc4c3c2C)cc(OC)c1OC | – | > 100 | > 100 | – | > 100 | 4.84 | > 100 | > 100 | < 0.01 | > 40.5 | < 0.01 | < 10 | < 10 | < 10 | < 10 | < 10 | < 0.01 | < 0.0186 | < 10 | < 10
7 | CCSc1nc(SCC)c2cn[nH]c2n1 | > 100 | > 100 | > 100 | > 100 | > 100 | > 100 | > 100 | 77.5 | 13.1 | 74.6 | 38.8 | 18600 | 66300 | 49000 | 31900 | 29000 | 62.7 | 26.3 | 2470 | 22900
8 | CCOC(=O)c1ccc(C)c(N=NN(C)C)c1 | > 100 | > 100 | > 100 | > 100 | > 100 | > 100 | > 100 | > 100 | > 100 | > 100 | – | – | – | – | – | – | – | – | – | –
9 | O=C1CCC(O)=C1N=Nc1ccccc1 | > 100 | > 100 | > 100 | > 100 | > 100 | > 100 | > 100 | > 100 | > 100 | > 100 | – | – | – | – | – | – | – | – | – | –
10 | CCOc1cc(C(C)(C)C)ccc1C1=N[C@@](C)(c2ccc(Cl)cc2)[C@@](C)(c2ccc(Cl)cc2)N1C(=O)N1CCN(CCCS(C)(=O)=O)CC1 | 25.7 | 29.3 | 6.01 | 10.9 | 11.8 | 14.4 | > 100 | 37.6 | 9.46 | 5.15 | 11.5 | 11400 | 2300 | 1400 | 895 | 3390 | 12 | 9.42 | 1640 | 214
11 | CC/C=C\C[C@H]1C/C=C2/C(=O)C=C[C@@H]2C/C=C\CCCC(=O)O1 | 3.9 | 5.39 | 2.86 | 4.28 | 8.86 | 3.1 | 10.7 | 9.49 | 3.35 | 8.98 | 0.734 | 1810 | 423 | 1690 | 2160 | 1570 | 0.338 | 2.16 | 1820 | 1050
12 | CC1(C)[C@@H](OC(N)=O)[C@H]2O[C@H]2[C@]2(C=O)[C@H]3CC[C@]4(C)[C@@H](c5ccc(=O)oc5)[C@@H](Cl)C[C@]4(O)C3=CC[C@@H]12 | 0.00981 | 0.00785 | 0.0128 | 0.0362 | 0.0077 | 0.237 | 0.015 | 0.00749 | 0.0222 | 0.00859 | 0.00487 | 3.99 | 5.6 | 8.36 | 3.47 | 7.17 | 0.00603 | 0.0037 | 6.83 | 4.48
13 | O=C1Nc2ccc(F)cc2/C1=C/c1ccc[nH]1 | > 25 | > 25 | > 25 | > 25 | > 25 | > 25 | > 25 | > 25 | > 25 | > 25 | > 18.4 | > 25000 | 11500 | 13400 | > 25000 | > 18300 | > 25 | > 25 | > 25000 | 8030
14 | C[C@]12CC[C@@H]3c4cc(OCC(F)(F)F)c(O)cc4/C(=N/O)C[C@H]3[C@@H]1CC[C@@H]2O | 0.0269 | 0.419 | > 42.5 | 20 | 3.79 | 0.135 | 15.5 | 21.7 | 21.5 | > 66.6 | – | 29 | 48.7 | – | 36.2 | 32.2 | 0.0808 | – | – | –
15 | CCn1c(SCc2ccc(C)cc2)nnc1-c1nn(-c2ccc(Cl)cc2Cl)c(-c2ccc(Cl)cc2)c1C | 11.6 | 11.9 | 11.4 | 15.4 | 10.5 | 10.9 | 10.7 | 14.9 | 7.88 | 12.6 | 1.98 | 2730 | 2700 | 2620 | 1460 | 2690 | 2.12 | 3.06 | 1370 | 2830
16 | CCn1c(-c2ccc(OC(C)=O)cc2)c(C)c2cc(OC(C)=O)ccc21 | 42.1 | 47.7 | > 100 | > 100 | 56.4 | 25.6 | > 100 | 58.5 | 70.4 | > 100 | – | – | – | – | – | – | – | – | – | –
17 | COc1c(CCl)cc(-c2cc(=O)c3ccccc3s2)cc1CCl | > 100 | 32.6 | > 100 | > 100 | > 100 | 3.2 | > 100 | > 100 | 90.7 | > 100 | – | – | – | – | – | – | – | – | – | –
18 | C=CCc1ccc(Oc2cc(CC=C)c3c(c2O)O[C@@H](CO)[C@H]3c2ccc(O)c(-c3cc(CC=C)ccc3O)c2)cc1 | > 100 | > 100 | > 100 | 72.8 | > 100 | > 100 | > 100 | > 100 | > 100 | > 100 | – | – | – | – | – | – | – | – | – | –
19 | COc1ccc(CCN2COc3c([C@@H](C)CCC=C(C)C)ccc(C)c3C2)cc1OC | 14.1 | 3.62 | 10.4 | 3.52 | 4.3 | 4.85 | 20.2 | 4.34 | 11.9 | 12.1 | 3.55 | 1860 | 2840 | 1080 | 2060 | 1730 | 4.21 | 1.45 | 1960 | 2730
20 | CN(C)C(=O)[C@H](O)[C@H](Cc1ccccc1)NC(=O)c1cc2cc(Cl)ccc2[nH]1 | 43.5 | 66.6 | 81.5 | 69.1 | 56.1 | 62.9 | > 100 | 73.3 | 54.1 | > 77.5 | 18.5 | 22600 | 22400 | 22400 | 22000 | 20000 | 28.8 | 21.1 | 12100 | 19300
